This is an account of results in US12187709B2 (Genentech, Inc., priority 2021, dated 2025).

Assay [1] has as its target c-Cbl (residues 47-435) (Homo sapiens (Human), UniProt P22681). The experiment in a line: c-Cbl SPR assay. The format is binding. The note with it: 20° C. Summed up: (§1)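 Captured protein (1300-1500 RU for both isoforms) was probed in multi-cycle kinetics with 6 concentrations in 2-fold dilution, 60 s contact, 40 μl/min, dissociation 120-1200 s, double-referenced. Kinetic and affinity parameters came from a 1:1 binding fit. For slow off-rates, kd was set independently by a chaser-based method.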

Assay [2] concerns the target c-Cbl (Homo sapiens (Human), UniProt P22681). The experiment in a line: C-Cbl LCK Ub TR-FRET assay (C-cbl Lck HTRF). The format is biochemical. Summed up:
(§2)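 After the ubiquitination reaction, detection mixture was added and plates incubated 20 min at room temperature before reading. IC50 values were calculated with wells lacking LCK as the low control and DMSO as the high control.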
(In general: In TR-FRET formats the signal depends on donor and acceptor labels being close together.)

In assay [3] the target is Human Cbl-b (residues 40-426) (Homo sapiens (Human), UniProt Q13191). The assay can be described thus: Cbl-b SPR assay. The format is binding. The note with it: for Fold of selectivity: C-cbl SPR Kd vs Cbl-b SPR Kd; for pKd: SPR, 20° C. Summed up: as §1
For orientation: In SPR one partner is held on a chip, and binding of the other changes the refractive index at the surface.

Assay [4] deals with Cbl-b (Homo sapiens (Human), UniProt Q13191). The experiment in a line: Cbl-b LCK Ub TR-FRET assay (Cbl-b Lck HTRF). The note with it: for pIC50: Cbl-b LCK Ub TR-FRET; for fold-selectivity (Cbl-b over C-cbl): ratio C-cbl Lck HTRF IC50 / Cbl-b Lck HTRF IC50. The format is biochemical. Summed up: as §2

Structures are written as SMILES. pIC50, pKd: −log10 of the molar value.

Chain of c-Cbl (P22681 47-435): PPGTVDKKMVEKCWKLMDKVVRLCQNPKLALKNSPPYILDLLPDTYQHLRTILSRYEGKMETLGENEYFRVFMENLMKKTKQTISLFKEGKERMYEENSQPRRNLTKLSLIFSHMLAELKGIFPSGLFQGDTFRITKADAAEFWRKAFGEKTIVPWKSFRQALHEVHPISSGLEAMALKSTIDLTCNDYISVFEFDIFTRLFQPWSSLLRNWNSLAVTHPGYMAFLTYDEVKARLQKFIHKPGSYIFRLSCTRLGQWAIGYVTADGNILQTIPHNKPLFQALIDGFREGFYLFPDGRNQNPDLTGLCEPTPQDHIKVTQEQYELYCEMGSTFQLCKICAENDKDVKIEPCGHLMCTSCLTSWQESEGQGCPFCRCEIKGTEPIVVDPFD
Chain of c-Cbl (residues 47-435) (P22681 47-435): as above
Chain of Cbl-b (Q13191 40-426): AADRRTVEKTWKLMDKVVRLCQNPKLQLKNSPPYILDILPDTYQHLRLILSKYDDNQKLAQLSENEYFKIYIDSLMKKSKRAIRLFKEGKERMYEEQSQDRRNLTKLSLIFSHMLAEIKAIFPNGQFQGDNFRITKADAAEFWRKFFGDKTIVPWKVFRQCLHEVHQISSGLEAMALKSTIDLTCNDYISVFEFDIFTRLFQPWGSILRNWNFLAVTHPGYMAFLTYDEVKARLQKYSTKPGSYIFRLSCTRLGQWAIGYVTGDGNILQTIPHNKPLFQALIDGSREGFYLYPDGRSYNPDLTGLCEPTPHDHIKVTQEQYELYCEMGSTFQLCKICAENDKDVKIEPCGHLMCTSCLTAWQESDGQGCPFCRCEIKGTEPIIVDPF
Chain of Human Cbl-b (residues 40-426) (Q13191 40-426): as above

A word on the pKd: it is the Kd on a negative log10 scale, so that one unit is a factor of ten. The low end stands for a large Kd, the high end for a small Kd. Broadly, the pIC50 is the negative decadic logarithm of the IC50, by convention in mol/L. In assay [1], `C[C@@H](NC1(C)CCC1)c1cc(Cl)c2c(c1)C(=O)N(c1cccc([C@]3(c4nncn4C)C[C@@H](F)C3)c1)C2` (single isomer, unassigned) [Compound 288] showed a pKd of 9.46. In assay [2], this compound had a pIC50 of 8.31. Moreover, in assay [3], the Fold of selectivity was 3.5× and the pKd was 10.00. Moreover, in assay [4], the pIC50 was 8.28 and the “fold-selectivity (Cbl-b over C-cbl)” value stood at 0.92x.

Consider `C[C@H](NC1(C)CCC1)c1cc(Cl)c2c(c1)C(=O)N(c1cccc([C@]3(c4nncn4C)C[C@@H](F)C3)c1)C2` (single isomer, unassigned) [Compound 289], for which the figures for the pKd in assay [1] and in assay [3] were 7.43 and 8.34, respectively. Also, the pIC50 in assay [2] was 7.37; in assay [4], 7.74. The Fold of selectivity in assay [3] came out at 8.5×. For the same compound, in assay [4], the “fold-selectivity (Cbl-b over C-cbl)” value worked out at 2.4x.

`Cn1cnnc1[C@H](c1cccc(N2Cc3c(cc(CNC4(C)CCC4)cc3C(F)(F)F)C2=O)c1)C1CCOCC1.O=CO` (single isomer, unassigned) [Compound 291, (S)-2-(3-((4-methyl-4H-1,2,4-triazol-3-yl)(tetrahydro-2H-pyran-4-yl)methyl)phenyl)-6-(((1-methylcyclobutyl)amino)methyl)-4-(trifluoromethyl)isoindolin-1-one formate]: the negative logarithm of the Kd (pKd) in assay [1] is 6.89; in assay [3], 7.21. Besides, the results for the pIC50 in assay [2] and in assay [4] were 7.33 and 7.96, respectively.

On to `Cn1cnnc1C1(c2cccc(N3Cc4c(cc([C@@H](O)CO)cc4C(F)(F)F)C3=O)c2)CCC1` (single isomer, unassigned) [Compound 301], for which the figures for the pKd in assay [1] and in assay [3] were 5.85 and 6.25, respectively. The pIC50 in assay [2] is 6.23; in assay [4] it was 6.52. The compound also came in with a Fold of selectivity in assay [3] of 2.8×. Moreover, the “fold-selectivity (Cbl-b over C-cbl)” value in assay [4] is listed as 2.0x.

For `Cn1cnnc1C1(c2cccc(N3Cc4c(cc([C@H](O)CO)cc4C(F)(F)F)C3=O)c2)CCC1` (single isomer, unassigned) [Compound 302], in assay [1], the pKd was 5.80. The same compound had a pIC50 in assay [2] of 6.06. In addition, in assay [3], the Fold of selectivity was 4.0× and the pKd was 6.39. Moreover, in assay [4], the negative logarithm of the IC50 (pIC50) is 6.39 and the “fold-selectivity (Cbl-b over C-cbl)” value stood at 2.1x.

For `Cn1cnnc1[C@@H](c1cccc(N2Cc3c(cc(CNC4(C)CCC4)cc3C(F)F)C2=O)c1)C1COC1` (single isomer, unassigned) [Compound 303], the pKd in assay [1] is 7.55. The compound also showed a pIC50 in assay [2] of 7.59. Besides, in assay [3], the Fold of selectivity was found to be 8.2× and the pKd was 8.48. Also, in assay [4], the pIC50 was 7.96 and the “fold-selectivity (Cbl-b over C-cbl)” value worked out at 2.3x.

In assay [1], `Cn1cnnc1[C@@](O)(c1cccc(N2Cc3c(cc(CNC4(C)CCC4)cc3C(F)(F)F)C2=O)c1)C(F)(F)F` (single isomer, unassigned) [Compound 308] gave a pKd of 7.25. The pIC50 in assay [2] is 7.39. Also, in assay [3], the Fold of selectivity came to 1.5× and the pKd is 7.43. Moreover, in assay [4], the pIC50 is 7.57 and the “fold-selectivity (Cbl-b over C-cbl)” value worked out at 1.5x.

`C[C@@H](NC1(C)CCC1)c1cc(Cl)c2c(c1)C(=O)N(c1cccc([C@]3(c4nncn4C)C[C@H](F)C3)c1)C2` (single isomer, unassigned) [Compound 311] showed a pKd in assay [1] of 9.60. The pIC50 in assay [2] was 8.37. In assay [3], this compound gave a Fold of selectivity of 2.5× and a pKd of 10.00. In assay [4], the pIC50 is 8.40 and the “fold-selectivity (Cbl-b over C-cbl)” value stood at 1.1x.

`C[C@H](NC1(C)CCC1)c1cc(Cl)c2c(c1)C(=O)N(c1cccc([C@]3(c4nncn4C)C[C@H](F)C3)c1)C2` (single isomer, unassigned) [Compound 312]: the figures for the pKd in assay [1] and in assay [3] were 7.55 and 8.70, respectively. The pIC50 was 7.57 in assay [2] and 8.11 in assay [4]. The same compound had a Fold of selectivity in assay [3] of 14×. In addition, the “fold-selectivity (Cbl-b over C-cbl)” value in assay [4] turned out to be 3.5x.

In assay [1], `CC[C@@H](NC1(C)CCC1)c1cc2c(c(C(F)(F)F)c1)CN(c1cccc([C@@H](c3nncn3C)C3COC3)c1)C2=O` (single isomer, unassigned) [Compound 316] showed a pKd of 5.89. In assay [2], this compound showed a pIC50 of 5.51. In assay [3], this compound had a Fold of selectivity of 7.5× and a pKd of 6.77. Besides, in assay [4], the pIC50 is 6.57 and the “fold-selectivity (Cbl-b over C-cbl)” value was 11x.

In the case of `Cn1cnnc1[C@@H](c1cccc(N2Cc3c(Cl)cc(CNC4(C)CCC4)cc3C2=O)c1)[C@H]1C[C@H](F)C1` (single isomer, unassigned) [Compound 318], the pKd in assay [1] was 5.64. In assay [2], this compound showed a pIC50 of 5.80. In assay [3], this compound showed a Fold of selectivity of 9.6× and a pKd of 6.60. For the same compound, in assay [4], the negative-log IC50 (pIC50) was 6.55 and the “fold-selectivity (Cbl-b over C-cbl)” value came to 5.6x.

On to `Cn1cnnc1[C@H](c1cccc(N2Cc3c(Cl)cc(CNC4(C)CCC4)cc3C2=O)c1)[C@H]1C[C@@H](F)C1` (single isomer, unassigned) [Compound 319], for which, in assay [1], the pKd is 7.28. Moreover, the pIC50 in assay [2] was 7.39. In assay [3], this compound gave a Fold of selectivity of 8.0× and a negative logarithm of the Kd (pKd) of 8.19. Further, in assay [4], the pIC50 is 7.92 and the “fold-selectivity (Cbl-b over C-cbl)” value worked out at 3.5x.

As to `Cn1cnnc1[C@H](c1cccc(N2Cc3c(Cl)cc(CNC4(C)CCC4)cc3C2=O)c1)[C@H]1C[C@H](F)C1` (single isomer, unassigned) [Compound 320], in assay [1], the negative logarithm of the Kd (pKd) is 8.66. The compound also had a pIC50 in assay [2] of 8.12. In assay [3], this compound showed a Fold of selectivity of 5.5× and a pKd of 9.40. In assay [4], the pIC50 is 8.25 and the “fold-selectivity (Cbl-b over C-cbl)” value was determined as 1.3x.

`Cc1cc([C@@H](c2nncn2C)C2COC2)cc(N2Cc3c(cc(CNC4(C)CCC4)cc3C(F)(F)F)C2=O)c1` (single isomer, unassigned) [Compound 333]: the pKd in assay [1] was 7.25. Further, in assay [2], the pIC50 is 7.39. In assay [3], this compound gave a Fold of selectivity of 2.2× and a pKd of 7.59. Also, in assay [4], the pIC50 is 7.41 and the “fold-selectivity (Cbl-b over C-cbl)” value came to 1.0x.

In assay [1], `COc1cc([C@@H](c2nncn2C)C2COC2)cc(N2Cc3c(cc(CNC4(C)CCC4)cc3C(F)(F)F)C2=O)c1` (single isomer, unassigned) [Compound 339] gave a pKd of 8.38. In assay [2], this compound showed a pIC50 of 8.20. For the same compound, in assay [3], the Fold of selectivity was 2.5× and the pKd is 8.77. Further, in assay [4], the pIC50 was 8.25 and the “fold-selectivity (Cbl-b over C-cbl)” value is 1.1x.

Compound `Cn1cnnc1[C@@H](c1cccc(N2Cc3c(cc(CNC4(C)CCC4)cc3C(F)(F)F)C2=O)c1)C1CC1` (single isomer, unassigned) [Compound 342] had a pKd in assay [1] of 8.92. Moreover, in assay [2], the pIC50 is 8.18. In addition, in assay [3], the Fold of selectivity stood at 2.4× and the pKd was 9.30. For the same compound, in assay [4], the pIC50 is 8.25 and the “fold-selectivity (Cbl-b over C-cbl)” value is listed as 1.2x.
